In US5831026A, “Process for purifying factor VIII” (Pharmacia & Upjohn AB, priority 1994, dated 1998):
Like-named read-outs stand apart in the source and are kept apart here.

Experiments:
[1] = system: metal-dependent proteases; test: Protease assay with resorufin-labeled casein in harvest solution (conditioned medium); format: biochemical, Chinese Hamster; settings: for Mean absorbance: 37° C., 2 h preincubation + 17 h, pH 7.5; for Mean absorbance corrected: blank subtracted
Protocol: The method chosen was a protease assay with casein which was resorufin-labeled. By treatment with proteases, resorufin-labeled peptides are released from the casein. The concentration of these resorufin-labeled peptides in the supernatant is a measure of the proteolytic activity present. The test sample was incubated at 37° C. for a period of time which was dependent upon the sample at issue. The absorption wave-length chosen was 574 run throughout the tests. […]
Preincubation of the conditioned medium with or without EDTA was conducted at 37° C. for 2 h. After the addition of substrate, further incubation was carried out for 17 h. The pH in the incubation mixture was 7.5.
Absorbance corrected, refers to the absorption after subtraction of the blank value.
Conditioned medium (containing human serum albumin) was clarified and imidazole subsequently added in an amount ranging from 3.6 mM up to 360 mM.
Conditioned medium (containing human serum albumin) was clarified and histidine subsequently added in an amount ranging from 0.14 mM to 13.6 mM.

[2] = system: metal-dependent proteases; settings: 3 mM EDTA in washing and elution liquid, harvest solution no. 2
Protocol: The method chosen was a protease assay with casein which was resorufin-labeled. By treatment with proteases, resorufin-labeled peptides are released from the casein. The concentration of these resorufin-labeled peptides in the supernatant is a measure of the proteolytic activity present. The test sample was incubated at 37° C. for a period of time which was dependent upon the sample at issue. The absorption wave-length chosen was 574 run throughout the tests.
(§1) Conditioned mediums (containing human serum albumin) from two consecutive harvests, were clarified and buffered with NH4 Ac. Each resulting solution, with a pH of 6.8, was loaded onto a column containing SP SEPHAROSE® FF sold by Pharmacia AB of Uppsala, Sweden. This cation-exchange chromatography step was performed at about 8° C. After washing, factor VIII was eluted with a salt buffer containing 0.8M NaCl and 0.1M NH4 Ac. The washing liquid as well as the elution liquid contained 3 mM EDTA in the tests with harvest solution no. 2. Tests without EDTA present was carried out for comparison (harvest solution no. 1). […] The concentration of unbound Ca^2+ -ions was determined by an ion-selective electrode.

[3] = 3 mM EDTA in washing and elution liquid; harvest solution no. 2
Protocol: as §1

factor VIII = test: Activity of factor VIII after addition of complexing agent to eluted solution from SP Sepharose FF, COATEST chromogenic assay; format: biochemical; settings: for Factor VIII activity (IU/ml) / Factor VIII activity (%): Example 8; for Factor VIII activity (%): 0 h without additive = 100
Protocol: Tests without EDTA present were carried out for comparison.
(§2) A conditioned medium (containing human serum albumin) from a different harvest than the previous Examples, was clarified and buffered with NH4 Ac. […] After elution, various amounts of EDTA were added to the resulting solution. Tests without EDTA present were carried out for comparison. The procoagulant activity of factor VIII was determined after storage at ambient temperature for up to 246 hours, in accordance to the procedure described in Example 5.
as §2, with “28” for “246”
A conditioned medium (containing human serum albumin) from a different harvest than the previous Examples, was clarified and buffered with NH4 Ac. The resulting solution was loaded onto a column containing SP SEPHAROSE® FF. This cation-exchange chromatography step was performed at 10° C. […] After elution, EDTA or 1,10-Phenanthroline were added to the resulting solution.

[4] = 3 mM EDTA, incubation 4.5 h ambient
[5] = 3 mM EDTA, incubation 7.5 h ambient
[6] = 3 mM EDTA, incubation 24 h ambient

## O=C(O)CN(CCN(CC(=O)O)CC(=O)O)CC(=O)O [EDTA, ethylenediamine tetraacetic acid]
[1]; 0.23 mM EDTA
  Protease activity (%): 43%
  Mean absorbance: 1835
  Mean absorbance corrected: 865
[1]; 1.2 mM EDTA
  Protease activity (%): 8%
  Mean absorbance: 1141
  Mean absorbance corrected: 171
[1]; 2.3 mM EDTA
  Protease activity (%): 5%
  Mean absorbance: 1069
  Mean absorbance corrected: 99
[1]; 11.5 mM EDTA
  Protease activity (%): 1%
  Mean absorbance: 994
  Mean absorbance corrected: 24
[1]; 23 mM EDTA
  Protease activity (%): -2%
  Mean absorbance: 933
  Mean absorbance corrected: -37
[2]; blank subtracted
  Mean absorbance corrected: 0.023
[2]; harvest no. 1 without EDTA = 100
  Protease activity (%): 8%
[2]; incubation 2 h
  Mean absorbance: 0.064
[3]
  Unbound Ca^2+ ions: 25 mM
Factor VIII; Example 6 (0.4M NaCl eluate), 0.01 mM EDTA, storage 0 h ambient
  Activity of factor VIII in % of the initial value: 100%
Factor VIII; Example 6 (0.4M NaCl eluate), 0.01 mM EDTA, storage 2.5 h ambient
  Activity of factor VIII in % of the initial value: 77%
Factor VIII; Example 6 (0.4M NaCl eluate), 0.01 mM EDTA, storage 5 h ambient
  Activity of factor VIII in % of the initial value: 59%
Factor VIII; Example 6 (0.4M NaCl eluate), 0.01 mM EDTA, storage 10 h ambient
  Activity of factor VIII in % of the initial value: 32%
Factor VIII; Example 6 (0.4M NaCl eluate), 0.01 mM EDTA, storage 24 h ambient
  Activity of factor VIII in % of the initial value: 1.9%
Factor VIII; Example 6 (0.4M NaCl eluate), 0.03 mM EDTA, storage 0 h ambient
  Activity of factor VIII in % of the initial value: 100%
Factor VIII; Example 6 (0.4M NaCl eluate), 0.03 mM EDTA, storage 2.5 h ambient
  Activity of factor VIII in % of the initial value: 76%
Factor VIII; Example 6 (0.4M NaCl eluate), 0.03 mM EDTA, storage 5 h ambient
  Activity of factor VIII in % of the initial value: 59%
Factor VIII; Example 6 (0.4M NaCl eluate), 0.03 mM EDTA, storage 10 h ambient
  Activity of factor VIII in % of the initial value: 33%
Factor VIII; Example 6 (0.4M NaCl eluate), 0.03 mM EDTA, storage 24 h ambient
  Activity of factor VIII in % of the initial value: 2.1%
Factor VIII; Example 6 (0.4M NaCl eluate), 0.1 mM EDTA, storage 0 h ambient
  Activity of factor VIII in % of the initial value: 100%
Factor VIII; Example 6 (0.4M NaCl eluate), 0.1 mM EDTA, storage 2.5 h ambient
  Activity of factor VIII in % of the initial value: 82%
Factor VIII; Example 6 (0.4M NaCl eluate), 0.1 mM EDTA, storage 5 h ambient
  Activity of factor VIII in % of the initial value: 65%
Factor VIII; Example 6 (0.4M NaCl eluate), 0.1 mM EDTA, storage 10 h ambient
  Activity of factor VIII in % of the initial value: 43%
Factor VIII; Example 6 (0.4M NaCl eluate), 0.1 mM EDTA, storage 24 h ambient
  Activity of factor VIII in % of the initial value: 4.6%
Factor VIII; Example 6 (0.4M NaCl eluate), 0.3 mM EDTA, storage 0 h ambient
  Activity of factor VIII in % of the initial value: 100%
Factor VIII; Example 6 (0.4M NaCl eluate), 0.3 mM EDTA, storage 2.5 h ambient
  Activity of factor VIII in % of the initial value: 79%
Factor VIII; Example 6 (0.4M NaCl eluate), 0.3 mM EDTA, storage 5 h ambient
  Activity of factor VIII in % of the initial value: 71%
Factor VIII; Example 6 (0.4M NaCl eluate), 0.3 mM EDTA, storage 10 h ambient
  Activity of factor VIII in % of the initial value: 55%
Factor VIII; Example 6 (0.4M NaCl eluate), 0.3 mM EDTA, storage 24 h ambient
  Activity of factor VIII in % of the initial value: 11%
Factor VIII; Example 6 (0.4M NaCl eluate), 1.0 mM EDTA, storage 0 h ambient
  Activity of factor VIII in % of the initial value: 100%
Factor VIII; Example 6 (0.4M NaCl eluate), 1.0 mM EDTA, storage 2.5 h ambient
  Activity of factor VIII in % of the initial value: 90%
Factor VIII; Example 6 (0.4M NaCl eluate), 1.0 mM EDTA, storage 5 h ambient
  Activity of factor VIII in % of the initial value: 97%
Factor VIII; Example 6 (0.4M NaCl eluate), 1.0 mM EDTA, storage 10 h ambient
  Activity of factor VIII in % of the initial value: 97%
Factor VIII; Example 6 (0.4M NaCl eluate), 1.0 mM EDTA, storage 24 h ambient
  Activity of factor VIII in % of the initial value: 75%
Factor VIII; Example 6 (0.4M NaCl eluate), 1.0 mM EDTA, storage 48 h ambient
  Activity of factor VIII in % of the initial value: 54%
Factor VIII; Example 6 (0.4M NaCl eluate), 3.0 mM EDTA, storage 0 h ambient
  Activity of factor VIII in % of the initial value: 100%
Factor VIII; Example 6 (0.4M NaCl eluate), 3.0 mM EDTA, storage 2.5 h ambient
  Activity of factor VIII in % of the initial value: 92%
Factor VIII; Example 6 (0.4M NaCl eluate), 3.0 mM EDTA, storage 5 h ambient
  Activity of factor VIII in % of the initial value: 102%
Factor VIII; Example 6 (0.4M NaCl eluate), 3.0 mM EDTA, storage 10 h ambient
  Activity of factor VIII in % of the initial value: 104%
Factor VIII; Example 6 (0.4M NaCl eluate), 3.0 mM EDTA, storage 24 h ambient
  Activity of factor VIII in % of the initial value: 100%
Factor VIII; Example 6 (0.4M NaCl eluate), 3.0 mM EDTA, storage 48 h ambient
  Activity of factor VIII in % of the initial value: 96%
Factor VIII; Example 6 (0.4M NaCl eluate), 3.0 mM EDTA, storage 72 h ambient
  Activity of factor VIII in % of the initial value: 80%
Factor VIII; Example 6 (0.4M NaCl eluate), 3.0 mM EDTA, storage 100 h ambient
  Activity of factor VIII in % of the initial value: 91%
Factor VIII; Example 6 (0.4M NaCl eluate), 3.0 mM EDTA, storage 246 h ambient
  Activity of factor VIII in % of the initial value: 72%
Factor VIII; Example 7 (0.8M NaCl eluate), 1 mM EDTA, storage 0 h ambient
  Activity of factor VIII in % of the initial value: 100%
Factor VIII; Example 7 (0.8M NaCl eluate), 1 mM EDTA, storage 5 h ambient
  Activity of factor VIII in % of the initial value: 119%
Factor VIII; Example 7 (0.8M NaCl eluate), 1 mM EDTA, storage 28 h ambient
  Activity of factor VIII in % of the initial value: 64%
Factor VIII; Example 7 (0.8M NaCl eluate), 2 mM EDTA, storage 0 h ambient
  Activity of factor VIII in % of the initial value: 100%
Factor VIII; Example 7 (0.8M NaCl eluate), 2 mM EDTA, storage 5 h ambient
  Activity of factor VIII in % of the initial value: 120%
Factor VIII; Example 7 (0.8M NaCl eluate), 2 mM EDTA, storage 28 h ambient
  Activity of factor VIII in % of the initial value: 100%
Factor VIII; Example 7 (0.8M NaCl eluate), 3 mM EDTA, storage 0 h ambient
  Activity of factor VIII in % of the initial value: 100%
Factor VIII; Example 7 (0.8M NaCl eluate), 3 mM EDTA, storage 5 h ambient
  Activity of factor VIII in % of the initial value: 120%
Factor VIII; Example 7 (0.8M NaCl eluate), 3 mM EDTA, storage 28 h ambient
  Activity of factor VIII in % of the initial value: 90%
Factor VIII; Example 7 (0.8M NaCl eluate), 4 mM EDTA, storage 0 h ambient
  Activity of factor VIII in % of the initial value: 100%
Factor VIII; Example 7 (0.8M NaCl eluate), 4 mM EDTA, storage 5 h ambient
  Activity of factor VIII in % of the initial value: 109%
Factor VIII; Example 7 (0.8M NaCl eluate), 4 mM EDTA, storage 28 h ambient
  Activity of factor VIII in % of the initial value: 103%
Factor VIII; Example 7 (0.8M NaCl eluate), 5 mM EDTA, storage 0 h ambient
  Activity of factor VIII in % of the initial value: 100%
Factor VIII; Example 7 (0.8M NaCl eluate), 5 mM EDTA, storage 5 h ambient
  Activity of factor VIII in % of the initial value: 116%
Factor VIII; Example 7 (0.8M NaCl eluate), 5 mM EDTA, storage 28 h ambient
  Activity of factor VIII in % of the initial value: 91%
Factor VIII; [4]
  Factor VIII activity (IU/ml): 813 IU/ml
  Factor VIII activity (%): 92%
Factor VIII; [5]
  Factor VIII activity (IU/ml): 862 IU/ml
  Factor VIII activity (%): 97%
Factor VIII; [6]
  Factor VIII activity (IU/ml): 763 IU/ml
  Factor VIII activity (%): 86%
